Measured values published in patent publication US20220202912A1, “Polypeptides in Preparation of Drugs for Treatment or Prevention of Rheumatoid Arthritis” (priority 2011, published 2022).
Like-named read-outs stand apart in the source and are kept apart here. Where no end group is shown, it is not given here.

How the values were obtained:
AIA rat models = experiment: adjuvant-induced arthritis (AIA) rat models; type: in vivo, SD rats; conditions: for clinical scoring / swelling of left paw / swelling of right paw: 5 times
human U937 cells = experiment: human whole genome array of U937-derived macrophages; type: cell-based; conditions: 13.5 μmol/L, 48 h
Method: 1.1.1 U937 cells are cultured in a 6-well plate at 3×10^6 cells/mL per well overnight, and PMA (25 ng/mL) is added on the next day for induction for 48 h. After the cells adhere, cultured supernatant is pipetted away. The cells are treated with mPEG-SC20k-HM-3 (test group) or a medium (negative control group) at 13.5 μmol/L at 37° C. for 48 h.
1.1.2 1×10^6 cells are taken from each of two groups of samples, and the solution has […], and is centrifuged for 5 min. The supernatant is removed. 1 mL of TRIZOL lysis solution is added and mixed uniformly, and the solution stands at room temperature for 5 min.
1.2 DNase I digest the RNA sample to remove any genomic DNA that may be contained therein. […]
1.8.2 Sample adding: An membrane on the PCR Array is opened, 10 μL of mixture is added to each well corresponding to the PCR Array, and a lid is closed to seal the PCR Array; after a real-time quantitative PCR program is set, the PCR Array is placed on the real-time quantitative PCR instrument for PCR reaction, and the prepared PCR Array is placed on ice before the PCR program is set. […]
1.9.3 2^−ΔΔCt values of the test group and the control group are calculated to analyze the difference in expression of the corresponding genes between the test group and the control group. […]

HUVECs = experiment: Western blot of protein expression in HUVECs; type: cell-based, human; conditions: 0.5-8.0 μmol/L, 24 h
Method: 3.2 After the third generation of human umbilical vein endothelial cells (HUVECs) are cultured in a 6-well plate to more than 80% fusion, the polypeptide mPEG-SC20k-HM-3 is added to final concentrations of 0.5, 1.0, 2.0, 4.0, 8.0 μmol/L, and PBS is used as a blank control. The cells are incubated in a CO2 incubator at 37° C. for 24 h; the cells are digested with 0.25% trypsin and counted, the solution is centrifuged at 3000 rpm for 5 min, and the cells are collected.
3.3 A protein extract solution is added at 20 μL/1×10^5 cells, and the cells are pipetted and dispersed, and stand at 4° C. for 30 min to lyse the cells.
3.4 1/4 volume of 5×protein loading buffer is added, and boiling water bath is performed for 5-10 min.
3.5 20 μL of protein sample is taken and 10% SDS-PAGE electrophoresis is performed.
3.6 The protein on the gel is transferred to the PVDF membrane by using a wetting transfer method with a constant current of 100 mA for 1-2.5 h.
3.7 The PVDF membrane is blocked with a blocking solution at room temperature for 2 h.
3.8 The membrane is washed for 3 times with PBST, 5 min each time. A primary antibody is added and the membrane stands at 4° C. overnight or is incubated at 37° C. for 2 h.
3.9 The membrane is washed for 3 times with PBST, 5 min each time. A secondary antibody is added and the membrane is incubated at room temperature for more than 2 h. […]

cotton ball granuloma = type: in vivo, SD rats; conditions: day 8
Method: The rats are randomly divided into a model control group, a positive control (dexamethasone) group, and mPEG-SC20k-HM-3 groups using subcutaneous injection at a high dose, a medium dose and a low dose, a total of 5 groups, and the drugs are administered to each group of animals by subcutaneous injection, for 7 days in succession.
Rats in each group are anesthetized with pentobarbital sodium (40 mg/kg) by intraperitoneal injection, and the abdominal coat is cut off. The skin in the middle of the lower abdomen is cut open under aseptic condition, and the incision is about 1 cm long. The subcutaneous tissue is expanded by vascular forceps, and 30 mg of sterile dry cotton balls (weighed accurately by an electronic balance before the test, and undergoing conventional autoclaving and drying for later use) are implanted hypodermically into the groin on one side. The incision is sutured, and an appropriate amount of amoxicillin is sprinkled on the incision to prevent infection.
The drug is administered on the same day after surgery, and is administered for 7 days in succession. On day 8, the rats are killed by cervical dislocation, the cotton balls are removed surgically, the fat tissue is removed, and the […] at 60° C. The mass of granuloma is expressed in mg (granulomatoma)/100 g (body weight). The granuloma mass difference between each administration group and the model control group is compared, and the inhibition rate is calculated. Data statistical analysis is performed on significant differences between the groups.
Inhibition rate (%)=(average granuloma mass of model control group−average granuloma mass of administration group)/average granuloma mass of model control group×100%.

[1] = high dose 40 mg/kg once the other day
[2] = low dose 10 mg/kg once the other day
[3] = medium dose 20 mg/kg once the other day

mPEG-SC20k-Ile-Val-Arg-Arg-Ala-Asp-Arg-Ala-Ala-Val-Pro-Gly-Gly-Gly-Gly-Arg-Gly-Asp ({mPEG‑SC 20k}-IVRRADRAAVPGGGGRGD) [polypeptide III, No. 3]
clinical scoring (AIA rat models; [1]): 5.29 ± 3.90
swelling of left paw (AIA rat models; [1]): 4.40 ± 0.91 mm
swelling of right paw (AIA rat models; [1]): 1.05 ± 1.31 mm
clinical scoring (AIA rat models; [2]): 5.43 ± 2.15
swelling of left paw (AIA rat models; [2]): 4.40 ± 0.91 mm
swelling of right paw (AIA rat models; [2]): 0.76 ± 1.21 mm
clinical scoring (AIA rat models; [3]): 5.71 ± 2.36
swelling of left paw (AIA rat models; [3]): 4.48 ± 1.72 mm
swelling of right paw (AIA rat models; [3]): 1.28 ± 1.27 mm
therapeutic effect on adjuvant-induced arthritis in rats (conclusion) (AIA rat models; rat, in vivo): CONCLUSION: polypeptide III has therapeutic effect on adjuvant-induced arthritis, and its effect is higher than that of polypeptide. I.
number of related factors down-regulated at the mRNA level (human U937 cells): 538
number of related factors up-regulated at the mRNA level (human U937 cells): 499
expression of VEGF in HUVECs (HUVECs): down-regulated
expression of integrin αν, integrin β3, MEK1, p-MEK1, PI3K, AKT1, p-AKT1, ERK1/2 and p-ERK1/2 in HUVECs (HUVECs): down-regulated
Inhibition rate of cotton ball granuloma (cotton ball granuloma; 5 mg/kg sc once two days (G5)): 35.67%
cotton ball granuloma (cotton ball granuloma; 5 mg/kg sc once two days (G5)): 0.19 ± 0.03 mg(cotton ball granuloma)/100 g(weight)
Inhibition rate of cotton ball granuloma (cotton ball granuloma; 10 mg/kg sc once two days (G4)): 39.33%
cotton ball granuloma (cotton ball granuloma; 10 mg/kg sc once two days (G4)): 0.18 ± 0.02 mg(cotton ball granuloma)/100 g(weight)
Inhibition rate of cotton ball granuloma (cotton ball granuloma; 20 mg/kg sc once two days (G3)): 38.23%
cotton ball granuloma (cotton ball granuloma; 20 mg/kg sc once two days (G3)): 0.18 ± 0.03 mg(cotton ball granuloma)/100 g(weight)
